According to PubChem BioAssay (NCI):
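Dose response: 5 concentrations. Exposure: 48 h. Format: 96-well plates. Endpoint: linear interpolation; highest concentration if not reached. GI50 is the concentration that inhibits growth by half. TGI: concentration producing complete growth inhibition.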

What was measured:
Assay in all cases: growth of human tumour cells (NCI), 48 h
DLD-1 colon = tested on: DLD-1 colon
SF-295 CNS = tested on: SF-295 CNS
DMS 114 small cell lung = tested on: DMS 114 small cell lung
KM20L2 colon = tested on: KM20L2 colon
RXF 393 renal = tested on: RXF 393 renal
U251 CNS = tested on: U251 CNS
SNB-78 CNS = tested on: SNB-78 CNS
NCI-H460 lung = tested on: NCI-H460 lung
EKVX NSCLC = tested on: EKVX NSCLC
DU-145 prostate = tested on: DU-145 prostate
BT-549 breast = tested on: BT-549 breast
MDA-MB-231 breast = tested on: MDA-MB-231 breast

Compound	TGI (DLD-1 colon) [µM]	TGI (SF-295 CNS) [µM]	TGI (DMS 114 small cell lung) [µM]	TGI (KM20L2 colon) [µM]	TGI (RXF 393 renal) [µM]	TGI (U251 CNS) [µM]	TGI (SNB-78 CNS) [µM]	TGI (NCI-H460 lung) [µM]	TGI (EKVX NSCLC) [µM]	TGI (DU-145 prostate) [µM]	TGI (BT-549 breast) [µM]	TGI (MDA-MB-231 breast) [µM]	GI50 (DU-145 prostate) [µM]	GI50 (SF-295 CNS) [µM]	GI50 (BT-549 breast) [µM]	GI50 (MDA-MB-231 breast) [µM]	GI50 (RXF 393 renal) [µM]	GI50 (U251 CNS) [µM]	GI50 (EKVX NSCLC) [µM]	GI50 (NCI-H460 lung) [µM]
CN(C)CC(/C(Cc1ccccc1)=N\NC(=S)NN)c1ccccc1 (centres undefined)	> 100	> 100	> 100	> 100	> 100	> 100	> 100	> 100	–	–	–	–	–	–	–	–	–	–	–	–
O=C(Nc1nc2ncn(CCO)c2c(=O)[nH]1)c1ccccc1	> 100	> 100	> 100	> 100	> 100	> 100	> 100	> 100	> 100	–	–	–	–	–	–	–	–	–	–	–
CC(=O)Nc1ccc(S(=O)(=O)NN(C)S(=O)(=O)c2ccc(C)cc2)cc1	> 100	> 100	> 100	> 100	> 100	–	–	> 100	> 100	–	–	–	–	–	–	–	–	–	–	–
COc1cc(-c2cc(=O)c3ccccc3[nH]2)cc(OC)c1OC	> 75	> 75	> 75	> 75	> 75	> 75	> 75	> 75	> 75	–	–	–	–	–	–	–	–	–	–	–
COCCOCOC(C)(C)[C@H](CCO)O[Si](c1ccccc1)(c1ccccc1)C(C)(C)C	22.4	18.6	–	24.4	17.8	24.5	35.1	22.3	29.5	–	–	–	–	–	–	–	–	–	–	–
Oc1cccnc1/C=N/OCc1ccccc1	> 100	> 100	> 100	> 100	72.8	> 100	> 100	> 100	> 100	–	–	–	–	–	–	–	–	–	–	–
O=C(O)C12CC3CC(CC(F)(C3)C1)C2	> 100	–	> 100	> 100	> 100	> 100	> 100	> 100	> 100	–	–	–	–	–	–	–	–	–	–	–
O=c1ccc2ccccc2c2ccccc12	14.7	13.3	4.7	3.85	–	4.93	17.7	13.8	35.8	–	–	–	–	–	–	–	–	–	–	–
CSc1ccc2c(cc1=O)C(NC(=O)c1ccc(C#N)cc1)CCc1cc(O)c(O)c(O)c1-2 (centres undefined)	70.2	74.7	44.9	45.5	–	45.3	> 100	73.3	> 100	–	–	–	–	–	–	–	–	–	–	–
COC1=C2CC(C)CC(OC)C(OC(=O)CCCN)C(C)/C=C(\C)C(OC(N)=O)C(OC)/C=C\C=C(/C)C(=O)NC(=CC1=O)C2=O (centres undefined)	–	31.1	–	–	25.6	34.5	–	36.5	26.6	30.5	15.8	36.1	–	–	–	–	–	–	–	–
C/C(N)=N/OCc1nc(C)no1	–	> 100	–	–	> 100	> 100	–	> 100	> 100	> 100	> 100	> 100	–	–	–	–	–	–	–	–
CC(C)CCC[C@@H](C)[C@H]1CC[C@H]2C3=C[C@H](OS(=O)(=O)O)[C@@]4(O)C[C@@H](O)CC[C@]4(C)[C@@]3(O)CC[C@]12C	–	> 100	–	–	> 100	> 100	–	> 100	> 100	> 100	> 100	> 100	–	–	–	–	–	–	–	–
O=C(NCCCCCCCN1CCCCCCC1)C(C1CCCCC1)C1CCCCC1	–	24.6	–	–	17	20.8	–	23.6	18.9	27.4	28.7	20.8	–	–	–	–	–	–	–	–
CC(=O)NCCCCN(CCCNC(C)=O)C(=O)OCc1ccccc1	–	> 100	–	–	> 100	> 100	–	> 100	> 100	> 100	> 100	> 100	–	–	–	–	–	–	–	–
CC(C)N(C(=O)C12C3C4C1C1C2C3C41C(=O)N(C(C)C)C(C)C)C(C)C (centres undefined)	> 50	> 50	> 50	> 50	–	> 50	> 50	> 50	> 50	–	–	–	–	–	–	–	–	–	–	–
O=C(Nc1ccc2[nH]c(C(=O)N3CC(CCl)c4ccc([N+](=O)[O-])cc43)cc2c1)c1cc2ccccc2o1 (centres undefined)	–	> 1100	–	–	> 1100	> 1100	–	> 1100	> 1100	> 1100	> 1100	> 1100	–	–	–	–	–	–	–	–
COC(=O)c1ccc(C=C(C#N)C#N)cc1	47.9	91.6	49.4	> 100	–	61.5	–	> 100	> 100	–	–	–	–	–	–	–	–	–	–	–
CN1CCC/C1=C1/C(=O)N(c2ccccc2)N=C1c1ccc[nH]1	–	> 100	–	–	> 100	> 100	–	> 100	> 100	> 100	> 100	> 100	–	–	–	–	–	–	–	–
Nc1nc2c(ncn2CCCC(c2ccccc2)P(=O)(O)O)c(=O)[nH]1 (centres undefined)	> 100	> 100	> 100	> 100	–	> 100	> 100	> 100	> 100	–	–	–	–	–	–	–	–	–	–	–
CSC(=N)N1N=C2/C(=C/c3ccccc3)CCC[C@H]2[C@H]1c1ccccc1	14.5	16.9	7.83	5.97	9.85	25.9	34.6	20.1	19.4	–	–	–	–	–	–	–	–	–	–	–
Cc1nnc(N/N=C(/C(=O)C(C#N)c2ccc(Cl)cc2)C(C#N)c2ccc(Cl)cc2)n1N (centres undefined)	42.4	30.9	31.4	41.2	31.6	–	51.3	39.3	–	–	–	–	–	–	–	–	–	–	–	–
c1cncc(CSc2ncnc3nc[nH]c23)c1	–	> 100	–	–	> 100	> 100	–	> 100	> 100	> 100	> 100	> 100	–	–	–	–	–	–	–	–
CC1SC(c2ccc(Cl)cc2)N(CCc2cccs2)C1=O (centres undefined)	–	2.53	–	–	2.94	3.18	–	3.26	4.47	4.87	2.81	3.28	1.83	1.23	1.49	1.55	1.56	1.63	1.3	1.56
COC(=O)CCC(NC(=S)N/N=C(\C)c1cnccn1)C(=O)OC (centres undefined)	> 100	> 100	54.2	> 100	> 100	> 100	> 100	> 100	> 100	–	–	–	–	–	–	–	–	–	–	–
CC(=O)N(CC(=O)C(=O)NNc1ccoc1)c1ccc(Cl)cc1	–	> 100	–	–	> 100	> 100	–	> 100	> 100	> 100	> 100	> 100	–	–	–	–	–	–	–	–
CCOC(=O)/C=C\C(C#N)(C#N)N=Cc1ccsc1	–	46.6	–	–	5.46	33.1	–	43.7	30.6	30.7	12.1	30.9	–	–	–	–	–	–	–	–
C=C(CCC=C(C)C)C1CC=C(C)CC1 (centres undefined)	–	45	–	–	31.6	34.8	–	40.1	92.7	71.1	> 100	97.6	–	–	–	–	–	–	–	–
COc1ccc(NC/C=C/C(=C/COC(C)=O)OC(C)=O)cc1	–	4.97	–	–	3.04	4.53	–	4.8	4.99	10.2	3.16	3.37	–	–	–	–	–	–	–	–
